This is an account of results in PubChem BioAssay AID1671243.

The experiment deals with Casein kinase I isoform alpha (Homo sapiens) (UniProt P48729). Put plainly: inhibition of CK1 alpha activity – biochemical, Z'-LYTE, FRET, direct format, dose response (AID 1671243). To be noted: Z'-LYTE FRET kinase activity assay.
Casein kinase I isoform alpha (Homo sapiens), sequence (P48729 whole entry, looked up, canonical isoform): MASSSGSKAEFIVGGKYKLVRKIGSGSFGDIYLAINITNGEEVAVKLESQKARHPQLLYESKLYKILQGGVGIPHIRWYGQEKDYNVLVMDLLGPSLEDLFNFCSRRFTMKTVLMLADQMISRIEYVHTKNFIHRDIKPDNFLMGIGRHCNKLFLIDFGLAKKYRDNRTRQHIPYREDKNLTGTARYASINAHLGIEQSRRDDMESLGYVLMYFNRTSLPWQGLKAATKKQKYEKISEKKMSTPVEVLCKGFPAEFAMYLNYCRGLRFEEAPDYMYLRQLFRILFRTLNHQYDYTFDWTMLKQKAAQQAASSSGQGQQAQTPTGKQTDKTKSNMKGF

Usually IC50 stands for the concentration that inhibits the measured activity by half. Consider `Brc1c(Br)c(Br)c2n[nH]nc2c1Br`, for which the IC50 is 17.6 µM.
